From patent US20210255193A1, “LYSINE REACTIVE PROBES AND USES THEREOF” (The Scripps Research Institute, priority 2017, published 2021)

Key:
Assay in all cases: competitive isoTOP-ABPP
Assay type in all cases: binding
[1] = biological target: T1, FECH Ferrochelatase, mitochondrial (Homo sapiens, UniProt P22830); settings: for R value (DMSO/fragment) for probe 1 labeling: P22830_K304; for R value (DMSO/fragment) for probe 1 labeling / isoTOP-ABPP reactivity ratio at lysine P22830_K304: 231 sol
T1 construct: isoTOP-ABPP experiments performed in cell lysates (in vitro); endogenous in cells; host or cells: soluble proteome of human cancer cell lines (MDA-MB-231; Ramos and Jurkat also prepared)
T1 sequence (P22830 55-423): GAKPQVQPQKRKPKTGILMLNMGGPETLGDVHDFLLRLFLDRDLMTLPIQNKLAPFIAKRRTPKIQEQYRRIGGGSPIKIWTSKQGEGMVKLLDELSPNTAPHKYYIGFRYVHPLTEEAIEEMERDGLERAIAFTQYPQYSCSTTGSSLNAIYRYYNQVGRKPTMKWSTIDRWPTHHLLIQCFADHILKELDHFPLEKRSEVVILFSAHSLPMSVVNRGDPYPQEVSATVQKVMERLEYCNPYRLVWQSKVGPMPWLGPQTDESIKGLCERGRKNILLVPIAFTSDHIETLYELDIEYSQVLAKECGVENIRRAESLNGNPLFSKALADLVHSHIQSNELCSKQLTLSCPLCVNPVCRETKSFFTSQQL
Summary of the method: (§1)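 Cell lysate (0.5 ml) was pre-treated with fragment, 50 μM for activated esters or 100 μM for guanidinylating agents, versus DMSO, then labeled 1 h at ambient temperature with 0.1 mM STP-alkyne. Light/heavy TEV tags attached by CuAAC; R = DMSO/compound MS1 peak-area ratio, median per lysine.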

[2] = biological target: T2, GTPBP3 tRNA modification GTPase GTPBP3, mitochondrial (Homo sapiens, UniProt Q969Y2); settings: for R value (DMSO/fragment) for probe 1 labeling: Q969Y2_K492; for R value (DMSO/fragment) for probe 1 labeling / isoTOP-ABPP reactivity ratio at lysine Q969Y2_K492: 231 sol
T2 construct: isoTOP-ABPP experiments performed in cell lysates (in vitro); endogenous in cells; host or cells: soluble proteome of human cancer cell lines (MDA-MB-231; Ramos and Jurkat also prepared)
T2 sequence (Q969Y2 21-492): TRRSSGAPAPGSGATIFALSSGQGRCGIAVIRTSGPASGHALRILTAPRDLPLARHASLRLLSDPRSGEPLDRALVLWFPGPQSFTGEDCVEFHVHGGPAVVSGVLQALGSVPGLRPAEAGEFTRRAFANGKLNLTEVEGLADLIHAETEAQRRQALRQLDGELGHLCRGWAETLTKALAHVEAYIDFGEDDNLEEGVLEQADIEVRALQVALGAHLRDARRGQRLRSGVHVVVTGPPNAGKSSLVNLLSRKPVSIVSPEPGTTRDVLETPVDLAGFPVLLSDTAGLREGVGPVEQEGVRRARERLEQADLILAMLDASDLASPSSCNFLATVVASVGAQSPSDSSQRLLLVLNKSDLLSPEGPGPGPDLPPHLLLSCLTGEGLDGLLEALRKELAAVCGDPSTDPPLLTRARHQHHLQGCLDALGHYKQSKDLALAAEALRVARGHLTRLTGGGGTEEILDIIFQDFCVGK
Summary of the method: as §1

[3] = biological target: T3, HNRNPK Heterogeneous nuclear ribonucleoprotein K (Homo sapiens, UniProt P61978); settings: for R value (DMSO/fragment) for probe 1 labeling: P61978_K405; for R value (DMSO/fragment) for probe 1 labeling / isoTOP-ABPP reactivity ratio at lysine P61978_K405: 231 sol
T3 construct: isoTOP-ABPP experiments performed in cell lysates (in vitro); endogenous in cells; host or cells: soluble proteome of human cancer cell lines (MDA-MB-231, Ramos, Jurkat)
Summary of the method: as §1

[4] = biological target: T4, NPEPPS Puromycin-sensitive aminopeptidase (Homo sapiens, UniProt P55786); settings: for R value (DMSO/fragment) for probe 1 labeling: P55786_K712; for R value (DMSO/fragment) for probe 1 labeling / isoTOP-ABPP reactivity ratio at lysine P55786_K712: 231 sol
T4 construct: isoTOP-ABPP experiments performed in cell lysates (in vitro); endogenous in cells; host or cells: soluble proteome of human cancer cell lines (MDA-MB-231, Ramos, Jurkat)
Summary of the method: as §1

[5] = biological target: T5, RPL10 60S ribosomal protein L10 (Homo sapiens, UniProt P27635); settings: for R value (DMSO/fragment) for probe 1 labeling: P27635_K121; for R value (DMSO/fragment) for probe 1 labeling / isoTOP-ABPP reactivity ratio at lysine P27635_K121: 231 sol
T5 construct: isoTOP-ABPP experiments performed in cell lysates (in vitro); endogenous in cells; host or cells: soluble proteome of human cancer cell lines (MDA-MB-231; Ramos and Jurkat also prepared)
Summary of the method: as §1

[6] = biological target: T6, RQCD1 Cell differentiation protein RCD1 homolog (Homo sapiens, UniProt Q92600); settings: for R value (DMSO/fragment) for probe 1 labeling: Q92600_K230; for R value (DMSO/fragment) for probe 1 labeling / isoTOP-ABPP reactivity ratio at lysine Q92600_K230: 231 sol
T6 construct: isoTOP-ABPP experiments performed in cell lysates (in vitro); endogenous in cells; host or cells: soluble proteome of human cancer cell lines (MDA-MB-231; Ramos and Jurkat also prepared)
Summary of the method: as §1

T4 sequence (P55786 whole entry, the tested form may be a part): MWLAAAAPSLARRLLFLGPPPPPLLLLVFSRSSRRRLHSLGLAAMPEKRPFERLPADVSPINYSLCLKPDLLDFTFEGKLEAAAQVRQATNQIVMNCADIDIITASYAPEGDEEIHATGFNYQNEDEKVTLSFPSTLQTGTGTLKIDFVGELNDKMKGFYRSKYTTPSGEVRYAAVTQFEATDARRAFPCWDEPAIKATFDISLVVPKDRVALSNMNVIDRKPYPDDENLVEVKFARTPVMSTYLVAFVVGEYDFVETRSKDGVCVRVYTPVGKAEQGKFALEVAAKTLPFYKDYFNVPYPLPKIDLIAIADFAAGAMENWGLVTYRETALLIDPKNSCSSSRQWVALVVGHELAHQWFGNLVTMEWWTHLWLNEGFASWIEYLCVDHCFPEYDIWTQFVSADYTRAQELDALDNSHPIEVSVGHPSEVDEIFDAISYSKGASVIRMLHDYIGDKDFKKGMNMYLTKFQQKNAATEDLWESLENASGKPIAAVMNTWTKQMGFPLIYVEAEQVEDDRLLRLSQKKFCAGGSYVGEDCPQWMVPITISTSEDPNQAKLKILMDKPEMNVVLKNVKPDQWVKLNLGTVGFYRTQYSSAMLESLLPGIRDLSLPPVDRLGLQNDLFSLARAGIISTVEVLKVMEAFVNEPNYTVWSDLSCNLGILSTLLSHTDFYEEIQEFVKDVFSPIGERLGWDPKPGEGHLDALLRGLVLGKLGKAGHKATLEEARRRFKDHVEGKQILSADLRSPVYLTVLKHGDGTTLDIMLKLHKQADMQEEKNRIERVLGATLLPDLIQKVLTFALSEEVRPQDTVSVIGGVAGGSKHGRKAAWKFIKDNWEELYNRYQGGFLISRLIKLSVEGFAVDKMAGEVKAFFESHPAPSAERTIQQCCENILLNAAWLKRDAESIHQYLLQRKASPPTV
T6 sequence (Q92600 whole entry, the tested form may be a part): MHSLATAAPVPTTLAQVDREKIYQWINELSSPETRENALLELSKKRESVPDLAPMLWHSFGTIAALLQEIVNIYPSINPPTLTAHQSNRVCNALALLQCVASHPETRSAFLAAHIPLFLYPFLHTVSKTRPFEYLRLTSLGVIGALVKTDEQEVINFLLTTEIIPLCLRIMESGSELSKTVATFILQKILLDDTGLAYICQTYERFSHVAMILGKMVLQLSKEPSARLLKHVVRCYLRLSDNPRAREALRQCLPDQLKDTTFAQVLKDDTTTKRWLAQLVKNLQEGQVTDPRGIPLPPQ

R value (DMSO/fragment) for probe 1 labeling ([1]; 50 uM, in vitro) | R value (DMSO/fragment) for probe 1 labeling ([2]; 50 uM, in vitro) | R value (DMSO/fragment) for probe 1 labeling ([3]; 50 uM, in vitro) | R value (DMSO/fragment) for probe 1 labeling ([4]; 50 uM, in vitro) | R value (DMSO/fragment) for probe 1 labeling ([5]; 50 uM, in vitro) | R value (DMSO/fragment) for probe 1 labeling ([6]; 50 uM, in vitro) | SMILES | isoTOP-ABPP reactivity ratio at lysine P22830_K304 ([1]; 50 uM, in vitro) | isoTOP-ABPP reactivity ratio at lysine Q969Y2_K492 ([2]; 50 uM, in vitro) | isoTOP-ABPP reactivity ratio at lysine P61978_K405 ([3]; 50 uM, in vitro) | isoTOP-ABPP reactivity ratio at lysine P55786_K712 ([4]; 50 uM, in vitro) | isoTOP-ABPP reactivity ratio at lysine P27635_K121 ([5]; 50 uM, in vitro) | isoTOP-ABPP reactivity ratio at lysine Q92600_K230 ([6]; 50 uM, in vitro) | also measured
1.0 | 1.3 | 1.0 | 0.9 | 0.8 | 0.9 | O=C(Oc1c(F)c(F)c(F)c(F)c1F)c1cc(C(F)(F)F)cc(C(F)(F)F)c1 [fragment 21, Pentafluorophenyl 3,5-bis(trifluoromethyl)benzoate] |  |  |  |  |  |  | 
 |  |  |  |  |  | O=C(CCc1cn(-c2ccccc2)nc1-c1ccccc1)Oc1ccc([N+](=O)[O-])cc1[N+](=O)[O-] [fragment 29, 2,4-Dinitrophenyl 3-(1,3-diphenyl-1H-pyrazol-4-yl)propanoate] | 5.4 | 20.0 | 20.0 | 1.1 | 1.4 | 1.0 | 
 |  |  |  |  |  | O=C(CCc1coc2cc(F)ccc2c1=O)Oc1c(F)c(F)c(F)c(F)c1F [fragment 26, Pentafluorophenyl 3-(7-fluoro-4-oxo-4H-chromen-3-yl)propanoate] | 1.7 | 5.0 | 0.9 | 1.2 | 0.9 | 1.2 | 
 |  |  |  |  |  | O=C(CCc1ccc2c(c1)OCO2)Oc1ccc([N+](=O)[O-])cc1[N+](=O)[O-] [fragment 45, 2,4-Dinitrophenyl 3-(benzo[d][1,3]dioxol-5-yl)propanoate] |  |  |  |  |  |  | isoTOP-ABPP ratio, lysine P22830_K304 ([1]; 50 uM_231_sol_in vitro): 1.4; isoTOP-ABPP ratio, lysine Q969Y2_K492 ([2]; 50 uM_231_sol_in vitro): 1.4; isoTOP-ABPP ratio, lysine P61978_K405 ([3]; 50 uM_231_sol_in vitro): 1.1; isoTOP-ABPP ratio, lysine P55786_K712 ([4]; 50 uM_231_sol_in vitro): 1.3; isoTOP-ABPP ratio, lysine P27635_K121 ([5]; 50 uM_231_sol_in vitro): 1.8; isoTOP-ABPP ratio, lysine Q92600_K230 ([6]; 50 uM_231_sol_in vitro): 1.7
 |  |  |  |  |  | O=C(CC12CC3CC(CC(C3)C1)C2)Oc1ccc([N+](=O)[O-])cc1[N+](=O)[O-] [fragment 38, 2,4-Dinitrophenyl 2-(adamantan-1-yl)acetate] |  |  |  |  |  |  | isoTOP-ABPP ratio (R) at liganded lysine P22830_K304 ([1]; 50 uM, in vitro, sol, 231): 1.8; isoTOP-ABPP ratio (R) at liganded lysine Q969Y2_K492 ([2]; 50 uM, in vitro, sol, 231): 1.1; isoTOP-ABPP ratio (R) at liganded lysine P61978_K405 ([3]; 50 uM, in vitro, sol, 231): 20.0; isoTOP-ABPP ratio (R) at liganded lysine P55786_K712 ([4]; 50 uM, in vitro, sol, 231): 1.0; isoTOP-ABPP ratio (R) at liganded lysine P27635_K121 ([5]; 50 uM, in vitro, sol, 231): 20.0; isoTOP-ABPP ratio (R) at liganded lysine Q92600_K230 ([6]; 50 uM, in vitro, sol, 231): 0.9
1.7 | 1.1 | 1.0 | 0.9 | 0.7 | 0.9 | O=C(Oc1c(F)c(F)c(F)c(F)c1F)C(c1ccccc1)c1ccccc1 [fragment 20, Pentafluorophenyl 2,2-diphenylacetate] |  |  |  |  |  |  | 
